The results in this text go back to ChEMBL document CHEMBL4834472 (J Med Chem, 2021).

One may read the IC50 as the concentration at which inhibition is half-maximal.

Active and inactive are the calls of the source. The calls are words filed in the database; no cut-off is given here. Some results are limits rather than exact numbers.

Experiment [1] deals with BaF3. The experiment can be described thus: Antiproliferative activity against mouse BaF3 cells harboring FLt3 ITD mutant assessed as cell death measured after 72 hrs by resazurin dye based assay. In kind it is functional. To be noted: BaF3, 72 h. A general note: Resazurin is reduced to fluorescent resorufin, in cell work by metabolically active cells.
Experiment [2] deals with MV4-11. The experiment can be described thus: cells. To be noted: Homo sapiens, MV4-11, 72 h.
Description: Antiproliferative activity against human MV4-11 cells assessed as cell death measured after 72 hrs by resazurin dye based assay
For another experiment, the target named is CDK2/Cyclin A1 (Homo sapiens, UniProt P24941). Format: protein-complex assay.
For the next experiment, the system named is CCRF-CEM. Briefly: Antiproliferative activity against human CCRF-CEM cells assessed as cell death measured after 72 hrs by resazurin dye based assay. In kind it is functional.
The next experiment concerns K562. The experiment can be described thus: cells. To be noted: Homo sapiens, K562, 72 h.
Experiment [3] has as its target Receptor-type tyrosine-protein kinase FLT3 (Homo sapiens, UniProt P36888, ITD).
Experiment [4] has as its target Receptor-type tyrosine-protein kinase FLT3 (Homo sapiens) (UniProt P36888). The experiment can be described thus: Inhibition of FLT3 in human MV4-11 cells assessed as STAT5 phosphorylation at Y694 at 20 to 100 nM incubated for 1 hrs by Western blot analysis. In kind it is cell-based. Particulars: dose 20-100 nM. (In general: A western blot detects proteins with antibodies after separation by electrophoresis.)

Another experiment relates to THP-1. The experiment can be described thus: Antiproliferative activity against human THP-1 cells assessed as cell death measured after 72 hrs by resazurin dye based assay. In kind it is functional. To be noted: THP-1, 72 h.
Experiment [5] concerns MOLM-14. The experiment can be described thus: Antiproliferative activity against human MOLM-14 cells assessed as cell death measured after 72 hrs by resazurin dye based assay. In kind it is functional. To be noted: MOLM-14, 72 h.
Experiment [6] has as its system MV4-11. Briefly: Induction of apoptosis in human MV4-11 cells assessed as increase in cleaved PARP1 level at 100 nM incubated for 24 hrs by Western blot analysis. Format: functional, cell-based.
The subject of experiment [7] is MOLM-14. The experiment can be described thus: Antiproliferative activity against human MOLM-14 cells harboring F691L mutant assessed as cell death measured after 72 hrs by resazurin dye based assay. Particulars: MOLM-14, 72 h. Format: functional.
The target of experiment [8] is T1, Receptor-type tyrosine-protein kinase FLT3 (Homo sapiens, UniProt P36888).
T1 sequence (P36888 whole entry): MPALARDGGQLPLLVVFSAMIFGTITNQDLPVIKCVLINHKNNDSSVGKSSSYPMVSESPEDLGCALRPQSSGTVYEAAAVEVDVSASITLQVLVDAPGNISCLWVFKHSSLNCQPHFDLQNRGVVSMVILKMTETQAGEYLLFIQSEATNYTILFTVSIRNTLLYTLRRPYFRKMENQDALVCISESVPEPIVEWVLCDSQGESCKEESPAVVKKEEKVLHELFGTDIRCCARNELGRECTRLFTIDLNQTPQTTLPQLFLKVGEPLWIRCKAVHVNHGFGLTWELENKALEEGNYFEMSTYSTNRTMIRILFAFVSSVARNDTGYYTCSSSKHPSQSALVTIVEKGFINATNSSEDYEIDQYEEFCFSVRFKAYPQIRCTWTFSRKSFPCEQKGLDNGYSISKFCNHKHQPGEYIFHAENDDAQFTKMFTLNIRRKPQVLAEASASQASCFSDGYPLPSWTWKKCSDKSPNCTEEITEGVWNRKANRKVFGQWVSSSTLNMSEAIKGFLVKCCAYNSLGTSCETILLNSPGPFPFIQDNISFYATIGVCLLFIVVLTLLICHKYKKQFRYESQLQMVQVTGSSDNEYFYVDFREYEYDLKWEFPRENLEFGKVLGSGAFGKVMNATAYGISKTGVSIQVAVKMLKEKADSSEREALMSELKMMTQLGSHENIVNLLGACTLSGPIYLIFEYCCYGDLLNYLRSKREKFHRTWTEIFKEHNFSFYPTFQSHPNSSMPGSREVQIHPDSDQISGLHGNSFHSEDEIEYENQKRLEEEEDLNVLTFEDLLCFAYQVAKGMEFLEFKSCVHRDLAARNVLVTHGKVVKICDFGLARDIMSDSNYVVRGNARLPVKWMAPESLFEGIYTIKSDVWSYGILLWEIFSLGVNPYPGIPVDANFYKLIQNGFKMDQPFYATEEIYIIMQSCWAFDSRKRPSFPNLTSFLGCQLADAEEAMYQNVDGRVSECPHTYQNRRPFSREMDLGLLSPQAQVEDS
The experiment can be described thus: Inhibition of wild type FLT3 (unknown origin) using AGLT peptide substrate in presence of [32P]gammaATP by image analyser.

The test system of experiment [9] is MV4-11. The experiment can be described thus: Induction of apoptosis in human MV4-11 cells assessed as caspase 3 activation using fluorescent substrate Ac-DEVD-AMC at 100 nM incubated for 24 hrs by Western blot analysis. In kind it is functional, cell-based.
Experiment [10] concerns MOLM-14. The experiment can be described thus: Antiproliferative activity against human MOLM-14 cells harboring D835Y mutant assessed as cell death measured after 72 hrs by resazurin dye based assay. In kind it is functional. To be noted: MOLM-14, 72 h.
Experiment [11] concerns BaF3. The experiment can be described thus: Antiproliferative activity against mouse BaF3 cells assessed as cell death measured after 72 hrs by resazurin dye based assay. Particulars: BaF3, 72 h. In kind it is functional.
The test system of experiment [12] is MV4-11. The experiment can be described thus: Induction of apoptosis in human MV4-11 cells assessed as caspase 7 activation using fluorescent substrate Ac-DEVD-AMC at 100 nM incubated for 24 hrs by Western blot analysis. Format: functional, cell-based.
In experiment [13] the test system is MV4-11. Briefly: Induction of apoptosis in human MV4-11 cells assessed as effect on Bcl2 level at 100 nM incubated for 24 hrs by Western blot analysis. In kind it is functional, cell-based.
The test system of a further experiment is U-937. The experiment can be described thus: Antiproliferative activity against human U-937 cells assessed as cell death measured after 72 hrs by resazurin dye based assay. Format: functional. Particulars: U-937, 72 h.
The test system of experiment [14] is MV4-11. The experiment can be described thus: Induction of apoptosis in human MV4-11 cells assessed as decrease in MCL1 level at 100 nM incubated for 24 hrs by Western blot analysis. Format: functional, cell-based.
The target of experiment [15] is Receptor-type tyrosine-protein kinase FLT3 (Homo sapiens) (UniProt P36888). The experiment can be described thus: Inhibition of FLT3 autophosphorylation in human MV4-11 cells at 20 to 100 nM incubated for 1 hrs by Western blot analysis. Format: cell-based. Particulars: dose 20-100 nM.
Another experiment addresses CDK2/Cyclin A2 (Homo sapiens, UniProt P24941). Briefly: Inhibition of CDK2/cyclin A2 (unknown origin) in presence of [32P]gammaATP by image analyser. In kind it is protein-complex assay.
Experiment [16] has as its target Cyclin-dependent kinase 4/cyclin D1 (Homo sapiens, UniProt P11802). The experiment can be described thus: Inhibition of CDK4/cyclin D1 (unknown origin) in presence of [32P]gammaATP by image analyser. In kind it is protein-complex assay.
The test system of the next experiment is MOLM-13. Briefly: Antiproliferative activity against human MOLM-13 cells assessed as cell death measured after 72 hrs by resazurin dye based assay. Format: functional. Particulars: MOLM-13, 72 h.
In experiment [17] the target is Receptor-type tyrosine-protein kinase FLT3 (Homo sapiens) (UniProt P36888). Briefly: Inhibition of FLT3 in human MV4-11 cells assessed as ERK1/2 phosphorylation at 20 to 100 nM incubated for 1 hrs by Western blot analysis. To be noted: dose 20-100 nM. Format: cell-based.
Another experiment relates to SEM cells. The experiment can be described thus: Antiproliferative activity against human SEM cells assessed as cell death measured after 72 hrs by resazurin dye based assay. Format: functional.
Experiment [18] has as its target Cyclin-dependent kinase 1/cyclin B1 (Homo sapiens, UniProt P06493). Briefly: Inhibition of CDK1/cyclin B1 (unknown origin) in presence of [32P]gammaATP by image analyser. Format: protein-complex assay.
The target of a further experiment is CDK9/cyclin T1 (Homo sapiens, UniProt P50750). The experiment can be described thus: Inhibition of CDK9/cyclin T1 (unknown origin) in presence of [32P]gammaATP by image analyser. Format: protein-complex assay.
Experiment [19] deals with Cyclin-dependent kinase 2/cyclin E1 (Homo sapiens, UniProt P24941). The experiment can be described thus: Inhibition of CDK2/cyclin E1 (unknown origin) in presence of [32P]gammaATP by image analyser. Format: protein-complex assay.
For experiment [20], the system named is Receptor-type tyrosine-protein kinase FLT3 (Homo sapiens), P36888 [D835Y]. The experiment can be described thus: Inhibition of FLT3 D835Y (unknown origin) assessed as residual activity at 500 nM.
Experiment [21] has as its system Receptor-type tyrosine-protein kinase FLT3 (Homo sapiens), P36888 [UNDEFINED MUTATION]. Briefly: Inhibition of FLT3 ITD (unknown origin) assessed as residual activity at 500 nM.
In experiment [22] the target is Lymphokine-activated killer T-cell-originated protein kinase (Homo sapiens) (UniProt Q96KB5). Briefly: Inhibition of TOPK (unknown origin) assessed as residual activity at 500 nM.
Sequence of Lymphokine-activated killer T-cell-originated protein kinase (Homo sapiens) (Q96KB5 whole entry): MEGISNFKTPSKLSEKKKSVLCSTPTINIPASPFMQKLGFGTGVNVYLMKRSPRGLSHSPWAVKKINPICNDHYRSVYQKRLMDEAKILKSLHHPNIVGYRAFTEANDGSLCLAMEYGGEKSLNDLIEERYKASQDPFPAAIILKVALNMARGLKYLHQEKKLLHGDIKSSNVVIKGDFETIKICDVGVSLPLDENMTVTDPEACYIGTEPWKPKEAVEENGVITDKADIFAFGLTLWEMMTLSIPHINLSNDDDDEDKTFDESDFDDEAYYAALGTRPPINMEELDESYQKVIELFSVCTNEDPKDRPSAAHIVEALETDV
For experiment [23], the target named is Leucine-rich repeat serine/threonine-protein kinase 2 (Homo sapiens) (UniProt Q5S007). Briefly: Inhibition of LRRK2 (unknown origin) assessed as residual activity at 500 nM.
For experiment [24], the target named is cGMP-dependent protein kinase 1 (Homo sapiens) (UniProt Q13976). Briefly: Inhibition of PKG1alpha (unknown origin) assessed as residual activity at 500 nM.
Experiment [25] concerns the target CDK2/Cyclin A1 (Homo sapiens) (UniProt P24941+P78396). Briefly: Inhibition of CDK2/cyclin A1 (unknown origin) assessed as residual activity at 500 nM. In kind it is protein-complex assay.
Experiment [26] has as its target Dual specificity tyrosine-phosphorylation-regulated kinase 1B (Homo sapiens) (UniProt Q9Y463). Briefly: Inhibition of DYRK1B (unknown origin) assessed as residual activity at 500 nM.
The target in experiment [27] is Rho-associated protein kinase 2 (Homo sapiens) (UniProt O75116). Briefly: Inhibition of ROCK2 (unknown origin) assessed as residual activity at 500 nM.
Experiment [28] deals with Dual specificity protein kinase CLK1 (Homo sapiens) (UniProt P49759). Briefly: Inhibition of CLK1 (unknown origin) assessed as residual activity at 500 nM.
Sequence of Dual specificity protein kinase CLK1 (Homo sapiens) (P49759 whole entry, looked up): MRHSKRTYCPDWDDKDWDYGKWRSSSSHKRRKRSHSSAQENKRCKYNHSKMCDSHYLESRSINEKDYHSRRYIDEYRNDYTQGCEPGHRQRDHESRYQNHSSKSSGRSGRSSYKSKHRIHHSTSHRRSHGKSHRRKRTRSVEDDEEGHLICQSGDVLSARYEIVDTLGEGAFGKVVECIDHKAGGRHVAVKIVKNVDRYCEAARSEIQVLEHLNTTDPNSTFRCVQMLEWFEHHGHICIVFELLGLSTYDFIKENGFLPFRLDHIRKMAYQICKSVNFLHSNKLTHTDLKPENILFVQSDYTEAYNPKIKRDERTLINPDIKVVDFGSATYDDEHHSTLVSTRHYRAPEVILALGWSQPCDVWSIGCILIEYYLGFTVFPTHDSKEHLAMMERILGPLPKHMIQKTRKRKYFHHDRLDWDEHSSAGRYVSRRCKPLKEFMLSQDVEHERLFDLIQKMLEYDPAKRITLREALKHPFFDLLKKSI
Experiment [29] concerns the target MAP kinase-interacting serine/threonine-protein kinase 2 (Homo sapiens) (UniProt Q9HBH9). Briefly: Inhibition of MNK2 (unknown origin) assessed as residual activity at 500 nM.
Experiment [30] concerns the target NT-3 growth factor receptor (Homo sapiens) (UniProt Q16288). The experiment can be described thus: Inhibition of TRKC (unknown origin) assessed as residual activity at 500 nM.
Experiment [31] has as its target Ribosomal protein S6 kinase beta-1 (Homo sapiens) (UniProt P23443). The experiment can be described thus: Inhibition of p70S6K (unknown origin) assessed as residual activity at 500 nM.
The target of experiment [32] is Maternal embryonic leucine zipper kinase (Homo sapiens) (UniProt Q14680). Briefly: Inhibition of MELK (unknown origin) assessed as residual activity at 500 nM.
Sequence of Maternal embryonic leucine zipper kinase (Homo sapiens) (Q14680 whole entry, looked up): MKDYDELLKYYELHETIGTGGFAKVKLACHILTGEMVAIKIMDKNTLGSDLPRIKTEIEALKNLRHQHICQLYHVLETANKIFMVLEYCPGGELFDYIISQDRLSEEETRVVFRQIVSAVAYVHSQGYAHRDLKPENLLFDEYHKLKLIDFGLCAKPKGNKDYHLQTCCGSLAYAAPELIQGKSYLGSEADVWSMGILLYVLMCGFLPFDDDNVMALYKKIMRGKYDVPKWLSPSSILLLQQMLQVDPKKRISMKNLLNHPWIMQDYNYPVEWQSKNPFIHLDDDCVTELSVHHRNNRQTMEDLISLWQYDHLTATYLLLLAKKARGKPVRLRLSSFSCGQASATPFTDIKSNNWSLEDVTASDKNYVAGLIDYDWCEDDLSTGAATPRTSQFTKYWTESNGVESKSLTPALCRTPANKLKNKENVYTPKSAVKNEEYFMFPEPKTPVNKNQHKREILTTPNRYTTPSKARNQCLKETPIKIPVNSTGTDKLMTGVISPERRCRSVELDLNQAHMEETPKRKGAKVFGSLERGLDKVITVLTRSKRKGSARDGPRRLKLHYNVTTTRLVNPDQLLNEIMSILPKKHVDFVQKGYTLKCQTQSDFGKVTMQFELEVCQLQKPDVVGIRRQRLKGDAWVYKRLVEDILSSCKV
The target in experiment [33] is Ribosomal protein S6 kinase alpha-4 (Homo sapiens) (UniProt O75676). The experiment can be described thus: Inhibition of MSK2 (unknown origin) assessed as residual activity at 500 nM.
Sequence of Ribosomal protein S6 kinase alpha-4 (Homo sapiens) (O75676 whole entry, looked up): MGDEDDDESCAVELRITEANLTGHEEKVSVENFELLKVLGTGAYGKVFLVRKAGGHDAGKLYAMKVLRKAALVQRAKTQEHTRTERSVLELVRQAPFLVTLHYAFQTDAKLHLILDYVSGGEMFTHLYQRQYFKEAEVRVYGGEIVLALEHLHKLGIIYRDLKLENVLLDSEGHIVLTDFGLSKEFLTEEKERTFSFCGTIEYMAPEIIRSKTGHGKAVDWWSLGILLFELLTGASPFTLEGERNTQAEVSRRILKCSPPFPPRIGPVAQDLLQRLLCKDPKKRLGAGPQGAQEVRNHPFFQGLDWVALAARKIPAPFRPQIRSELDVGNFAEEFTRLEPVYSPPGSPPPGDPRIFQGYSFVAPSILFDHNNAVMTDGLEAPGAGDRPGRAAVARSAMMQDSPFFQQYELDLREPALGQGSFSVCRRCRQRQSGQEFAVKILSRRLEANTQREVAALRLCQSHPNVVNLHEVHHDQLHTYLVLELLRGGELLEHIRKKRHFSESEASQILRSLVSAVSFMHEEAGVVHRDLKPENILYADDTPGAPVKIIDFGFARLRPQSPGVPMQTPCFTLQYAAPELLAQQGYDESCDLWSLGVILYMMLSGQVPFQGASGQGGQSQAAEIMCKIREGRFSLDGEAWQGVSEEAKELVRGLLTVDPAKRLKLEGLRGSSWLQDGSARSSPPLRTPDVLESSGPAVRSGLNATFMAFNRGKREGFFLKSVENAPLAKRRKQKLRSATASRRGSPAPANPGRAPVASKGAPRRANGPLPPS

Sequence of NT-3 growth factor receptor (Homo sapiens) (Q16288 32-839 limits assumed): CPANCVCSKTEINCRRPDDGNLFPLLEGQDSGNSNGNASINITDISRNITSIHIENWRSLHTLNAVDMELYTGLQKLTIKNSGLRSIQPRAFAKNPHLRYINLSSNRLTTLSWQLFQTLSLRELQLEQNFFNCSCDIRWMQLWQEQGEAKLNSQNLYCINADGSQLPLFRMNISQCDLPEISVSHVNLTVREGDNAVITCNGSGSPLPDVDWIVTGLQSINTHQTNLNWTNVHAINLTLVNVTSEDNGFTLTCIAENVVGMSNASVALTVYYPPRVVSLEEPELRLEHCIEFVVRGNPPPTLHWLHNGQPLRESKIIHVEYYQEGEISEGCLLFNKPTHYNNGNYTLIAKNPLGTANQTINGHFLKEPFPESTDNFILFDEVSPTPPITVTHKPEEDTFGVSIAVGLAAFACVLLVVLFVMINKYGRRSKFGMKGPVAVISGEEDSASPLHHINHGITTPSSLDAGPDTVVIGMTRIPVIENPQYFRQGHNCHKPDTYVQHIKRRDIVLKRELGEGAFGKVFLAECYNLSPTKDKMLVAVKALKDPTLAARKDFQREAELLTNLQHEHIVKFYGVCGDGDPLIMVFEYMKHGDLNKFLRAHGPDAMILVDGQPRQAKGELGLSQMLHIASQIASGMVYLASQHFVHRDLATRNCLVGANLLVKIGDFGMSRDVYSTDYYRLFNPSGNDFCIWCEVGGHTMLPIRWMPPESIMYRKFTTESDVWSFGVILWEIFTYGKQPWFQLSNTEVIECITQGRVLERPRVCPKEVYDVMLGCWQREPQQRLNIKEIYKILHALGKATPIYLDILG
Sequence of Ribosomal protein S6 kinase beta-1 (Homo sapiens) (P23443 whole entry, looked up): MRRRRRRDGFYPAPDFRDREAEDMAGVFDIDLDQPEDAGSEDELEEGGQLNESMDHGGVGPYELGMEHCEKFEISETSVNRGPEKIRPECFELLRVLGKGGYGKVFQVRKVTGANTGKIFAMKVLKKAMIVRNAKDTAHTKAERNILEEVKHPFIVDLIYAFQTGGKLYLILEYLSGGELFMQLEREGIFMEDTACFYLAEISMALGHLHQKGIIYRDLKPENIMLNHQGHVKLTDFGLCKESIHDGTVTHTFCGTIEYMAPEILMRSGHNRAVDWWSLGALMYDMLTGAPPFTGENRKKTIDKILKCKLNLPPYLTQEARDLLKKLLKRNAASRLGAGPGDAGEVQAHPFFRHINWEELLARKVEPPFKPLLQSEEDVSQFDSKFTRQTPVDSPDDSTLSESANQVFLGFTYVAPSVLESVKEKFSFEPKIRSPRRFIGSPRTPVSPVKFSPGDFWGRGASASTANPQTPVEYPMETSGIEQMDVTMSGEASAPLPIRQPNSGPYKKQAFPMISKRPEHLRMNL
Sequence of Cyclin-dependent kinase 1/cyclin B1 (P06493 whole entry): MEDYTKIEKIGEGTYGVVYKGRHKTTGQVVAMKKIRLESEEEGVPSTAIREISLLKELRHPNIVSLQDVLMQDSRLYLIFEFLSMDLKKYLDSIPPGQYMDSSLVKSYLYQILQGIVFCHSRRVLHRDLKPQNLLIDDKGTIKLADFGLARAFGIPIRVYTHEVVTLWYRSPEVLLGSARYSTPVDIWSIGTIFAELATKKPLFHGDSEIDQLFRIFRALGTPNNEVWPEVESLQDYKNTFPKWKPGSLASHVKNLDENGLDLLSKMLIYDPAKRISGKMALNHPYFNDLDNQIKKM
Sequence of Cyclin-dependent kinase 1/cyclin B1 (P14635 whole entry, further chain): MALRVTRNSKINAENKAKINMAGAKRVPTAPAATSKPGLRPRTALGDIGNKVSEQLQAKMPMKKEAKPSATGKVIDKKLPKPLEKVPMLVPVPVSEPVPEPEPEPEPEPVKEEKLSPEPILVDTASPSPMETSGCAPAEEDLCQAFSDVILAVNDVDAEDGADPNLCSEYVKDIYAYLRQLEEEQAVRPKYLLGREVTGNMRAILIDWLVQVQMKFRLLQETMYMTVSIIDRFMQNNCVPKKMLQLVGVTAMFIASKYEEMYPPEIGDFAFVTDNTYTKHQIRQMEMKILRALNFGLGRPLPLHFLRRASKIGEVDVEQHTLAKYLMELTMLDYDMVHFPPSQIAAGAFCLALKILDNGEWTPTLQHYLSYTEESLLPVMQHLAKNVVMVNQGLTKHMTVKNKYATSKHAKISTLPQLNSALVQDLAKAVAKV
Sequence of Cyclin-dependent kinase 4/cyclin D1 (P11802 whole entry): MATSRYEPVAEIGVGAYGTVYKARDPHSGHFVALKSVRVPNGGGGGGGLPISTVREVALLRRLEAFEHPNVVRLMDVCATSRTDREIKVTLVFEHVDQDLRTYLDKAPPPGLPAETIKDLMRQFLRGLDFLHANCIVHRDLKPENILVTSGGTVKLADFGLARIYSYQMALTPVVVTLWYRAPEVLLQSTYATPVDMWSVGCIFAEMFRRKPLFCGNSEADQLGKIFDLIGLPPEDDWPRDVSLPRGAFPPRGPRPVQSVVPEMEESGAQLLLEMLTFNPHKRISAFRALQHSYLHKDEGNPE
Sequence of Cyclin-dependent kinase 4/cyclin D1 (P24385 whole entry, further chain): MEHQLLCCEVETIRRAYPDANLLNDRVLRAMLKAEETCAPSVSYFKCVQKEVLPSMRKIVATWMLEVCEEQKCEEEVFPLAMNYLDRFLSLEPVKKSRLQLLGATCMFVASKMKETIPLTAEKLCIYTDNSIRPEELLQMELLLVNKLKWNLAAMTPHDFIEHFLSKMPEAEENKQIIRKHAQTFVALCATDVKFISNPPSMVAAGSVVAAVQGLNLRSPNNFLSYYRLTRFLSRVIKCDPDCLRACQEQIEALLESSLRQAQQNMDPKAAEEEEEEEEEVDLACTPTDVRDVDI
Description for K562: Antiproliferative activity against human K562 cells assessed as cell death measured after 72 hrs by resazurin dye based assay

As to `OCc1n[nH]c2ccc3nc(-c4c[nH]nc4C(F)(F)F)c4c(c3c12)CCCC4`, the IC50 in the experiment with BaF3 [1] worked out at 124 nM; with MV4-11 [2] it was 30 nM; against CDK2/Cyclin A1, 141 nM; in the experiment on CCRF-CEM, 5210 nM; in the experiment with K562, 9720 nM; in experiment [3] it was 3 nM. The IC50 in the experiment with THP-1 is 16900 nM; in the experiment with MOLM-14 [5], 36 nM; in the experiment on MOLM-14 [7], 91 nM; in experiment [8] it was 32 nM; in the experiment with MOLM-14 [10], 16 nM; with BaF3 [11] it was 16100 nM. The concentration for half-maximal inhibition (IC50) in the experiment on U-937 was 4820 nM; at CDK2/Cyclin A2, 141 nM; in experiment [16], above 1000 nM; in the experiment with MOLM-13 it was 18 nM; in the experiment with SEM cells, 437 nM; in experiment [18] it was 203 nM. In addition, the IC50 on CDK9/cyclin T1 is above 1000 nM; in experiment [19] it was 102 nM. Besides, the inhibition result in [4] and in experiment [15] was “Active” each time. Also, the outcome with MV4-11 [6], with MV4-11 [9], with MV4-11 [12], in the experiment with MV4-11 [13] and in the experiment with MV4-11 [14] was Active. In [17], the inhibition entry was “inactive”.
Consider `FC(F)(F)c1n[nH]cc1-c1nc2ccc3[nH]ncc3c2c2c1CCCC2`, for which the Activity in experiment [20] was below 2.5%; in experiment [21], below 2.5%; in experiment [22], below 25%; in experiment [23], 4%; in experiment [24] it was below 25%; in experiment [25] it was below 25%. For the same compound, the Activity in experiment [26] was 4%; in experiment [27], below 25%; in [28], 4%; in experiment [29], below 25%; in experiment [30], 4%; in experiment [31], below 25%. The Activity in experiment [32] is 4%; in [33] it was below 25%. Further, the figures for the 50% inhibitory concentration (IC50) with MV4-11 [2], against CDK2/Cyclin A1 and with K562 were 71 nM, 39 nM and 8590 nM, respectively.
